Patent US4574080A, “Combination formulation” (A/S Alfred Benzon, priority 1982, dated 1986)

Legend:
[1] = Adhesion of clopamide to (film-coated) potassium chloride crystals after dry coating / mechanical stress; type: physicochemical; settings: for A: amount of clopamide adhered immediately after the dry coating / B: clopamide adhered per dose of finished granulate / C: clopamide removed during mixing of the granulate (A-B): Table 2, Talc 2.0 ×
Protocol: A sample containing film-coated KCl-crystals with clopamide adhered to the surface was placed on a sieve.
The sieve and sample were shaken (Pascal sieve, model 1) for 15 minutes. The quantity of clopamide adhered to the film-coated crystals was then determined as described under Content Uniformity (clopamide)
The amount of clopamide adhered was determined as described under MATERIALS AND METHODS. In Table 1, the influence of the anti-adhesive and the coating time on the adhesion tendency of clopamide is shown.
As a considerable amount of the clopamide (about 20%) is removed by the admixture of the necessary auxiliary materials for the tabletting process (vide Table 1), it was examined whether a more gentle, but more laborious method in which the auxiliary materials are premixed separately, thus reducing the final mixing time, would reduce this removal.
The examinations were carried out as described above for the examination of the adhesion tendency of clopamide, and the amount of clopamide adhered was again determined as described under MATERIALS AND METHODS; the dry coating time was 60 minutes. The results are shown in Table 3 wherein A, B and C are as described above, and D designates the relative amount of adhered clopamide abrased during the final mixing [formula]

[2] = Diuretic effect (urine volume) in healthy subjects; type: in vivo, human (healthy subjects); settings: clopamide 20 mg
Protocol: Complete balanced cross-over study with single dose administration.
Blood samples were collected 36 hours and urine samples 24 hours after administration.
10 healthy subjects without any history of renal, hepatic, gastrointestinal or heart disease.
Clopamide 20 mg and potassium chloride 2400 mg (32 mEq):
Two days before drug administration and throughout the test days the volunteers were kept on a low potassium diet (less than 30 mEq) and a standardized calorie intake of about 2000 kcal per day. No tea, coffee or alcohol was allowed. For the individual person the diet was identical on all six test days (2 period of 3 days).
The day before drug aministration the volunteers were given 100 ml water every hour from 09.00 a.m. during the next 12 hours, i.e. 1300 ml water per day. The same procedure was followed on the test day.
Blood samples were drawn before dosing and 1, 2, 3, 4, 6, 8, 12, 24 and 36 hours after. Urine was collected quantitatively 24 hours before drug administration and 24 hours after in aliquots: 0-1 h, 1-2 h, 2-3 h, 3-4 h, 4-6 h, 6-8 h, 8-12 h, and 12-24 h.
Data which fulfil the requirement for using parametric tests were analyzed by a three-way analysis of variance, splitting the total variation up into variations between subjects, treatment periods, treatment and residual. Logarithmic transformations of the variables have been used in appropriate cases.

[3] = Colloidal silicon dioxide 0.13 × the amount of clopamide, coating time 10 min
[4] = Colloidal silicon dioxide 0.13 × the amount of clopamide, coating time 30 min
[5] = Colloidal silicon dioxide 0.13 × the amount of clopamide, coating time 60 min
[6] = gentle admixture of auxiliary materials (5 min), coating time 60 min
[7] = usual admixture of auxiliary materials (11 min), coating time 60 min
[8] = Talc 2.0 × the amount of clopamide, coating time 10 min
[9] = Talc 2.0 × the amount of clopamide, coating time 30 min
[10] = Talc 2.0 × the amount of clopamide, coating time 60 min
[11] = Talc […] the amount of clopamide, coating time 10 min
[12] = Talc […] the amount of clopamide, coating time 30 min
[13] = Talc […] the amount of clopamide, coating time 60 min
[14] = treatment days compared to control days

C[C@@H]1CCC[C@H](C)N1NC(=O)c1ccc(Cl)c(S(N)(=O)=O)c1 [Clopamide, 4-chloro-N--(cis-2,6-dimethylpiperidino)-3-sulfamoyl-benzamide]
A: amount of clopamide adhered in percent of the theoretical dose immediately after the dry coating [1, 3]: 70.4% | B: percentage of the theoretical dose of clopamide adhered per dose of finished granulate [1, 3]: 60.2% | C: percentage of a dose of clopamide removed during the mixing of the granulate (A-B) [1, 3]: 10.2% | A: amount of clopamide adhered in percent of the theoretical dose immediately after the dry coating [1, 4]: 75.2% | B: percentage of the theoretical dose of clopamide adhered per dose of finished granulate [1, 4]: 58.8% | C: percentage of a dose of clopamide removed during the mixing of the granulate (A-B) [1, 4]: 16.4% | A: amount of clopamide adhered in percent of the theoretical dose immediately after the dry coating [1, 5]: 85.8% | B: percentage of the theoretical dose of clopamide adhered per dose of finished granulate [1, 5]: 66.6% | C: percentage of a dose of clopamide removed during the mixing of the granulate (A-B) [1, 5]: 19.2% | A: amount of clopamide adhered immediately after the dry coating [1, 6]: 83.0% | B: clopamide adhered per dose of finished granulate [1, 6]: 70.0% | C: clopamide removed during mixing of the granulate (A-B) [1, 6]: 13.0% | A: amount of clopamide adhered immediately after the dry coating [1, 7]: 86.2% | B: clopamide adhered per dose of finished granulate [1, 7]: 70.6% | C: clopamide removed during mixing of the granulate (A-B) [1, 7]: 15.6% | A: amount of clopamide adhered in percent of the theoretical dose immediately after the dry coating [1, 8]: 76.4% | B: percentage of the theoretical dose of clopamide adhered per dose of finished granulate [1, 8]: 53.8% | C: percentage of a dose of clopamide removed during the mixing of the granulate (A-B) [1, 8]: 22.6% | A: amount of clopamide adhered in percent of the theoretical dose immediately after the dry coating [1, 9]: 87.6% | B: percentage of the theoretical dose of clopamide adhered per dose of finished granulate [1, 9]: 65.4% | C: percentage of a dose of clopamide removed during the mixing of the granulate (A-B) [1, 9]: 22.2% | A: amount of clopamide adhered in percent of the theoretical dose immediately after the dry coating [1, 10]: 86.2% | B: percentage of the theoretical dose of clopamide adhered per dose of finished granulate [1, 10]: 70.6% | C: percentage of a dose of clopamide removed during the mixing of the granulate (A-B) [1, 10]: 15.6% | A: amount of clopamide adhered in percent of the theoretical dose immediately after the dry coating [1, 11]: 96.4% | B: percentage of the theoretical dose of clopamide adhered per dose of finished granulate [1, 11]: 65.0% | C: percentage of a dose of clopamide removed during the mixing of the granulate (A-B) [1, 11]: 31.4% | A: amount of clopamide adhered in percent of the theoretical dose immediately after the dry coating [1, 12]: 88.4% | B: percentage of the theoretical dose of clopamide adhered per dose of finished granulate [1, 12]: 69.8% | C: percentage of a dose of clopamide removed during the mixing of the granulate (A-B) [1, 12]: 18.6% | A: amount of clopamide adhered in percent of the theoretical dose immediately after the dry coating [1, 13]: 100.2% | B: percentage of the theoretical dose of clopamide adhered per dose of finished granulate [1, 13]: 78.6% | C: percentage of a dose of clopamide removed during the mixing of the granulate (A-B) [1, 13]: 21.6% | effect of increased coating time on adhesion (in words) ([1]; talc as anti-adhesive): not only an increased adhesion, but also a more resistant adhesion | amount of clopamide removed by the admixture of the auxiliary materials ([1]; vide Table 1): about 20% | total 24 h urine, percent of that of control days ([2]; 95% CI 138.9 to 185.3%): 160.4% | 24 hours urine volume (in words) [2, 14]: statistically significant increase | hourly maximal urine volume (in words) [2, 14]: statistically significant increase
